Assays:
Format in all cases: cell-based, human
HPRT [1] = assay: CRISPR knock-in of Pol-II-driven shRNA into CCR5 region of K562 cells, 6-TG selection, HPRT staining; settings: for obvious cytotoxicity in K562 cells: knock-in
Text: It has been well known that some polymerase III-dependent short-hairpin RNAs have overexpression issues and can induce acute cytotoxicity. […] This is an important concern when considering the use of RNA interference (RNAi) as a potential therapeutic approach, especially in stem cell gene therapy. Here, polymerase II was used as alternative promoter to express microRNA so as to effectuate knockdown of the expression of HPRT. A CRISPR/Cas9 gene editing approach was utilized, and a Cas9 with a single guide RNA (Cas9 RNP) targeting CCR5, together with a single-stranded DNA oligonucleotide donor (ssODN) encoding an HPRT Pol II driven shRNA, was used to enable efficient replacement of the CCR5 locus with a functional HPRT miRNA. […] For knock-in of sh211 and sh734, the obvious cytotoxicity in K562 cells was not observed.

HPRT [2] = assay: HPRT knockdown in transduced K562 cells (qRT-PCR); settings: after 6TG treatment
Procedure: With reference to FIG. 50, K562 cells were transduced with TL20c-rGbGM-7SK/sh734 or TL20c GbG^M21 days before initiating 6TG treatment. RNA was isolated and qRT-PCRT was performed to determine the number of copies of sh734 relative to RNU38B and normalized to VCN (relative expression/VCN). Relative expression levels of sh734 and HPRT were determined every two weeks post-transduction. The graph illustrated sh734 plotted on the left Y-axis and the percent of HPRT knockdown related to mock transduced cells (HPRT/mock×100) and normalized to VCN plotted on the right Y axis.
K562 cells were transduced with the sh7-GFP mono-vector reporter construct or CAL-H for 21 days before initiating 6TG. RNA was isolated, and qRT-PCR performed to determine the number of copies of sh734 relative to RNU38B and normalized to VCN (relative expression/VCN). FIGS. 51A and 51B illustrates the percent HPRT knockdown relative to mock transduced cells (HPRT/mock×100) normalized to VCN is plotted on the right Y axis. […] 14 days after selection, HPRT levels became undetectable in transduced cultures. 6TG selected K562 cells continued to grow and express sh734 after 3-months in culture (data not shown). […] At day 21, K562 cultures transduced with the sh7-GFP reporter construct were 35% GFP+ and increased to 88% GFP+ cells by day 42 following 6TG treatment.

K562 cells = assay: in vitro 6TG selection and stability of transduced K562 cells (VCN, % GFP+); settings: 6TG selected
Procedure: 4) 2×10^5 cells of control K562, 6 samples transduced at dilution factor 32 and 6 samples transduced at dilution factor 1 are reseeded in 6-well plate with 4 mL of RPMI without and with 300 nM of 6-thioguanine, respectively. 2.5×10^6 cells of 6 samples transduced at dilution factor 1 are made through mixing transduced and untransduced cells at ratio of 1:3. Two cell pellets (1×10^6 cells each) for DNA & RNA analysis for these 6 samples will be frozen down. The medium is refreshed every 3-4 days. K562 transduced with TL20cw-7SK/sh734-GFP (dilution factor at 256 and 8) will be included as positive controls.
5) Two cell pellets (1×10^6 cells each) for DNA & RNA analysis for 13 samples including control K562 will be frozen down at day 7/14/21 or even 28(MY). Copy numbers of GbG and sh734 are analyzed. The samples at day 21/28 are optional if the copy numbers of all samples are higher than 95% of expected value for day 14. […]
K562 cells were transduced with sh734 for 21 days before initiating 6TG treatment for 14 days (shaded areas). With reference to FIGS. 49A through 49G, vector copy number (VCN) was determined every two weeks from genomic DNA by multiplex RU5 qPCR and absolute quantitation from a standard curve using lentiviral vector (HIV-1-based LTR R-U5) target and human Apolipoprotein B (ApoB) reference sequences. […]

| Molecule | obvious cytotoxicity in K562 cells (HPRT [1]) | HPRT levels (HPRT [2]) | duration of sh734 expression and function in culture (K562 cells) | HPRT levels (HPRT staining) (HPRT [1]; K562 cells after three weeks of 6-TG selection, control 99%) [%] |
| --- | --- | --- | --- | --- |
| sh211: shRNA targeting an HPRT gene, SEQ ID NO: 28 (GGTTATGACCTTGATTTATACCTGACCCATATTAAATCAAGGTCATAACCTTTTT) | not observed |  |  |  |
| sh734: shRNA targeting an HPRT gene, SEQ ID NO: 30 (AGGATATGCCCTTGACTATTTGTCCGACATAGTCAAGGGCATATCCTTTTTT) | not observed | less than 10 % of untreated cells | greater than 3 months |  |
| sh211-3G: sh211 embedded in the miRNA-3G backbone, SEQ ID NO: 25; Pol-II (EF1a) driven (nucleic acid, Synthetic miRNA211-3G, Pol-II (EF1a) driven) CCGGATCAACGCCCTAGGTTTATGTTTGGATGAACTGACATACGCGTATCCGTCTTTTAAATCAAGGTCATAACCGTAGTGAAATATATATTAAACAGGTTATGACCTTGATTTAAAATACGGTAACGCGGAATTCGCAACTATTTTATCAATTTTTTGCGTCGAC |  |  |  | 12 |

— US11795461B2, “Compositions and methods for treating beta-hemoglobinopathies” (CSL Behring Gene Therapy, Inc., priority 2017, dated 2023)
